Measured values published in ChEMBL document CHEMBL1139164, “Optimization of halopemide for phospholipase D2 inhibition” (Bioorg Med Chem Lett, 2007).

Tests used:
[1] = Cmax in rat at 5 mg/kg, po or 1 mg/kg, iv; assay type: ADME, organism-based; conditions: in vivo
[2] = Clearance in rat at 5 mg/kg, po or 1 mg/kg, iv; assay type: ADME, organism-based; conditions: in vivo
[3] = molecular target: T1, Phospholipase D2 (Homo sapiens, UniProt O14939)
[4] = tested on: Rattus norvegicus; experiment: AUC in rat at 5 mg/kg, po or 1 mg/kg, iv; assay type: ADME, organism-based, Plasma; conditions: in vivo
[5] = Half life in rat at 5 mg/kg, po or 1 mg/kg, iv; assay type: ADME, organism-based; conditions: in vivo
[6] = Oral bioavailability in rat at 5 mg/kg; assay type: ADME, organism-based; conditions: in vivo
[7] = molecular target: T1, Phospholipase D2; experiment: Inhibition of PLD2 at 1 uM

T1 sequence (O14939 whole entry): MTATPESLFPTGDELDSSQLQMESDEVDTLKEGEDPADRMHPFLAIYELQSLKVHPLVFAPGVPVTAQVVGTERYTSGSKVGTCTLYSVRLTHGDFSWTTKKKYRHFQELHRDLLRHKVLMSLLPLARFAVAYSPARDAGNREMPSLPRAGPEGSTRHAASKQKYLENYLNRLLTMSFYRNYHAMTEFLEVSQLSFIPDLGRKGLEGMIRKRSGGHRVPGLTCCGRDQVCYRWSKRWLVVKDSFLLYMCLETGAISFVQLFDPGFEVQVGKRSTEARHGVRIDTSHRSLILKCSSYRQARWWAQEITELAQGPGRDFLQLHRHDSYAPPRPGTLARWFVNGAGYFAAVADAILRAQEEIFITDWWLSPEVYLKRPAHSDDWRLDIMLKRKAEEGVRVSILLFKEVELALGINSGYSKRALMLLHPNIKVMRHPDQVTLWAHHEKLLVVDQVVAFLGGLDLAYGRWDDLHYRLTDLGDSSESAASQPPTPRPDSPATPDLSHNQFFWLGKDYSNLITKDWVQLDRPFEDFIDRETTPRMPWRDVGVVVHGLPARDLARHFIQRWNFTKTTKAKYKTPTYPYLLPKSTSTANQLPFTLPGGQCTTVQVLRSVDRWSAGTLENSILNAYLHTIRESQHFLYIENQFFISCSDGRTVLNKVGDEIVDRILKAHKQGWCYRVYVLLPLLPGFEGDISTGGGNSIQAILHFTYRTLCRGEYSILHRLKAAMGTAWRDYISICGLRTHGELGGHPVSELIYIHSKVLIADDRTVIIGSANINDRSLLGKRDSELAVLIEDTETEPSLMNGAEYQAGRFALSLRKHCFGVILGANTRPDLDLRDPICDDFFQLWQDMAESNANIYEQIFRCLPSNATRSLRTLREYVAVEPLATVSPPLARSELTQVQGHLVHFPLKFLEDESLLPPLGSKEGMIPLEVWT

With `O=C(NCCN1CCC(n2c(=O)[nH]c3ccccc32)CC1)c1cc2cc(F)ccc2[nH]1` the Cmax [1] was 363 nM, the clearance [2] was 36.3 mL/min/kg and the IC50 [3] was 20 nM. For the same compound, the AUC [4] was 1.03 uM.hr/L, the half-life [5] was 5.57 h and the bioavailability [6] was 18.5%.
`O=C(NCCN1CCC(n2c(=O)[nH]c3ccccc32)CC1)c1cc2ccccc2[nH]1` showed an IC50 [3] of 20 nM.
With `O=C(NCCN1CCC(n2c(=O)[nH]c3ccccc32)CC1)c1cc2ccccc2s1` the IC50 [3] was 2000 nM.
Compound `O=C(CCc1ccc(F)cc1)NCCN1CCC(n2c(=O)[nH]c3ccccc32)CC1` has an inhibition [7] of 0%.
Compound `Cn1c(C(=O)NCCN2CCC(n3c(=O)[nH]c4ccccc43)CC2)cc2ccccc21` has an inhibition [7] of 0%.
`O=C(NCCN1CCC(n2c(=O)[nH]c3ccccc32)CC1)OCc1ccccc1` gave an inhibition [7] of 0%.
Compound `CC(C)C(=O)NCCN1CCC(n2c(=O)[nH]c3ccccc32)CC1` has an inhibition [7] of 0%.
`CC(C)CC(=O)NCCN1CCC(n2c(=O)[nH]c3ccccc32)CC1` gave an inhibition [7] of 0%.
`O=C(Cc1ccc(F)cc1)NCCN1CCC(n2c(=O)[nH]c3ccccc32)CC1` gave an inhibition [7] of 0%.
Work on `O=C(NCCN1CCC(n2c(=O)[nH]c3ccccc32)CC1)c1ccc(F)cc1` yielded an IC50 [3] of 1410 nM.
Work on `O=C(NCCN1CCC(n2c(=O)[nH]c3ccccc32)CC1)c1ccsc1` yielded an IC50 [3] of 1000 nM.
In the case of `O=C(NCCN1CCC(n2c(=O)[nH]c3ccccc32)CC1)c1ccccc1`, the IC50 [3] is reported as 1500 nM.
